One series concerns 5-HT fibers. Kind of series: Morphine-induced scratching after 5,7-DHT. It is filed as in vivo, mice. Conditions: vs saline vehicle.
For series [1], the system named is GRPR. The class given is in vivo. Conditions: GRPR mutant mice compared to wild-type mice. The source says:
All data are presented as means±s.e.m.
FIG. 17A-C depicts scratching behavior induced by i.d. injection of histamine, endothelin-1 or 5-HT in GRPR mutant (black bars) and wild-type mice (white bars).
To ascertain whether GRPR is required for itch sensation, we studied the effects of several pruritogenic agents in GRPR mutant mice and wild-type mice.

For another series, the system named is NMBR/GRPR. The class given is in vivo. To be noted: NMBR/GRPR double knockout mice; for response to i.d. pruritogens: i.d. in 50 μl; for response to intrathecal bombesin-like peptides: GRP (1 nM), Bombesin (0.05 nM), NMB (2 nM). The protocol:
FIG. 44 depicts the itch behavior of NMBR/GRPR double knockout mice in response to 3 different bombesin-like peptides. […] GKO, GRPR mutant mice; DKO, NMBR/GRPR double KO mice.
(A), (C), (E), (G) and (I) are time course curve, while (B), (D), (F), (H) and (J) represent the total value comparisons from the same experiment. *p<0.05, **p<0.01; One-way ANOVA followed by Newman-Keuls post hoc test was used in all statistical analysis.
Histamine was injected i.d. in 50 μl at 20 μg/mouse. Compound 48/80 was injected i.d. in 50 μl at 20 μg/mouse. ET-1 was injected i.d. in 50 μl at 1 ng/mouse. […] Serotonin (5-HT) was injected i.d. in 50 μl at 1 1 nmol/μl.

For the next series, the target named is T1, NMBR (Mus musculus, UniProt O54799).
T1 construct: NMBR is expressed in the most superficial layer of the dorsal spinal cord; endogenous in cells; host or cells: living wild-type mice, spinal cord (intrathecal injection)
T1 sequence (O54799 1-390): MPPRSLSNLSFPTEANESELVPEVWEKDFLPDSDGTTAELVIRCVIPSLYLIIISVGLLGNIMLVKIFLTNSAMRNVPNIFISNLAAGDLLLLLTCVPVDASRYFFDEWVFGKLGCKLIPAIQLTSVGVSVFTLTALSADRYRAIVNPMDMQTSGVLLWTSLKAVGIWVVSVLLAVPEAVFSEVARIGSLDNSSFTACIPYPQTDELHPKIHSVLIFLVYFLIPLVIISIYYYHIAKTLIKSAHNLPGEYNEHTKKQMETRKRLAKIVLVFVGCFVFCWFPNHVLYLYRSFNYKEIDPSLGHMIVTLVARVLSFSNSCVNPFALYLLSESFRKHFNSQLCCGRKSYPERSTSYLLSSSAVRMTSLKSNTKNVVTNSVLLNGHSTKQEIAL
Kind of series: Effect of NMBR antagonist on NMB-, GRP- and chloroquine-evoked scratching. The class given is in vivo, mice. The procedure:
(B) Dose response experiment depicting the NMB-evoked scratching behavior in wild type mice measured over 30 minutes after injection with 1 and 2 nmol of PD168268.
(A) Number of scratches over time. (B) Comparison of cumulative number of scratches of the results shown in (A). PD168268 was injected at 2 nmol/mouse 10 min before GRP 1 nmol/mouse. p<0.01 (p=0.0072), t test, when the data in first 5 min was compared.
(A) Number of scratches over time. (B) Comparison of cumulative number of scratches of the results shown in (A). […] One-way ANOVA followed by Newman-Keuls post hoc test.

Series [2] addresses T2, VR1 vanilloid receptor (Mus musculus, UniProt Q704Y3). Briefly: Depletion of primary fibers by intrathecal resiniferatoxin (immunocytochemistry). It is filed as in vivo, mice. The arrangement: An approximate 80% of GRP+ neurons express TRPV1, a vanilloid receptor important for detecting thermal and chemical stimuli in the DRGs; endogenous in cells; host or cells: living mice, TRPV1+ primary afferent fibers (intrathecal RTX). The text has this:
FIG. 32A-L depicts micrographs showing that peptidergic but not non-peptidergic fibers were depleted by resiniferatoxin (RTX) treatment. […] The IB4 positive non-peptidergic fibers remain the same after RTX treatment (C) compared with the control group (D). […] GRP+ fibers are almost lost in the RTX treated group (I) compared with the control group (J). TRPV1 staining is lost after RTX treatment (K) compared to the control group (L).
An approximate 80% of GRP+ neurons express TRPV1, a vanilloid receptor important for detecting thermal and chemical stimuli in the DRGs (FIG. 31). […] Non-peptidergic primary fibers labeled by IB4-FITC are normal (FIG. 32C, D). […] Motor function is not affected by the depletion of TRPV1+ primary fibers (FIG. 33B).
Mice were given resiniferatoxin (Sigma, 25 ng/5 ul) or vehicle intrathecally under isoflurane-induced anesthesia. The behavior was tested 3-5 days later.

Series [3] addresses T2, VR1 vanilloid receptor.
In series [4] the target is T3, GRPR (Mus musculus, UniProt P21729).
T3 construct: GRP acts through spinal GRPR to mediate the transmission of information that drives scratching behavior; endogenous in cells; host or cells: living mice (C57BL/6J / wild-type littermates), spinal dorsal horn neurons reached by intrathecal injection
T3 sequence (P21729 whole entry): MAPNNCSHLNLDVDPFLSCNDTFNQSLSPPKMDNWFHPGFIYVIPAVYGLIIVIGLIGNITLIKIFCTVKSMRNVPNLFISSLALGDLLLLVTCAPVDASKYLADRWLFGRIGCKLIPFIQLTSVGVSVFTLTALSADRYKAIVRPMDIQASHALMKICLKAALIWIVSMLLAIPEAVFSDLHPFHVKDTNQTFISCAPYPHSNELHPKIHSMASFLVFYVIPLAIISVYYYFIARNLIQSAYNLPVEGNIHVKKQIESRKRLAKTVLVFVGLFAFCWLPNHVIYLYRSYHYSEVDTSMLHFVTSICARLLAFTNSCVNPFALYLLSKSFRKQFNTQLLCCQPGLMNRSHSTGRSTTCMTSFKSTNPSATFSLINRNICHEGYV
Kind of series: Scratching behavior after intrathecal injection of GRPR agonist GRP18-27. It is filed as in vivo, mice. The protocol:
(§1) FIG. 7A-E depicts graphs showing the effect of GRPR agonist and antagonist on scratching behavior. (A) Scratching behavior is monitored after intrathecal (i.t.) injection of GRP18-27 (0.03, 0.1 or 1.0 nmol/5 μl). GRP18-27 induced dose-dependent scratching behavior in wild-type mice (n=7; open circles). […] ANOVA; **P<0.01. […] ANOVA; *P<0.05.
(§2) To determine whether an activation of GRPR in the spinal cord may facilitate the transmission of itch signals, which would subsequently result in increased scratching behavior, the GRPR agonist GRP18-27 was intrathecally administered (Ladenheim et al., 1996).

In series [5] the target is T3, GRPR. Kind of series: Scratching induced by i.d. pruritogenic agents after i.t. GRPR antagonist. It is filed as in vivo, mice. Conditions: i.t. antagonist 10 min before i.d. injection of each pruritogenic agent; vs saline control.
The target of series [6] is T3, GRPR. The arrangement: species or system mice. Conditions: in vivo.
In series [7] the target is T3, GRPR. The class given is in vivo, mice.
The subject of series [8] is GRPR. Briefly: Scratching behavior after intrathecal injection of GRPR agonist GRP18-27. The class given is in vivo, mice. To be noted: GRPR mutant mice compared with wild-type. The protocol: as §1, §2
Where [9] appears, read: three days after i.t. 25 ng/5 μl.
[10] abbreviates: antagonist 1.0 nmol i.t. vs vehicle.

Where no end group is shown, it is not given here.

T2 sequence (Q704Y3 whole entry): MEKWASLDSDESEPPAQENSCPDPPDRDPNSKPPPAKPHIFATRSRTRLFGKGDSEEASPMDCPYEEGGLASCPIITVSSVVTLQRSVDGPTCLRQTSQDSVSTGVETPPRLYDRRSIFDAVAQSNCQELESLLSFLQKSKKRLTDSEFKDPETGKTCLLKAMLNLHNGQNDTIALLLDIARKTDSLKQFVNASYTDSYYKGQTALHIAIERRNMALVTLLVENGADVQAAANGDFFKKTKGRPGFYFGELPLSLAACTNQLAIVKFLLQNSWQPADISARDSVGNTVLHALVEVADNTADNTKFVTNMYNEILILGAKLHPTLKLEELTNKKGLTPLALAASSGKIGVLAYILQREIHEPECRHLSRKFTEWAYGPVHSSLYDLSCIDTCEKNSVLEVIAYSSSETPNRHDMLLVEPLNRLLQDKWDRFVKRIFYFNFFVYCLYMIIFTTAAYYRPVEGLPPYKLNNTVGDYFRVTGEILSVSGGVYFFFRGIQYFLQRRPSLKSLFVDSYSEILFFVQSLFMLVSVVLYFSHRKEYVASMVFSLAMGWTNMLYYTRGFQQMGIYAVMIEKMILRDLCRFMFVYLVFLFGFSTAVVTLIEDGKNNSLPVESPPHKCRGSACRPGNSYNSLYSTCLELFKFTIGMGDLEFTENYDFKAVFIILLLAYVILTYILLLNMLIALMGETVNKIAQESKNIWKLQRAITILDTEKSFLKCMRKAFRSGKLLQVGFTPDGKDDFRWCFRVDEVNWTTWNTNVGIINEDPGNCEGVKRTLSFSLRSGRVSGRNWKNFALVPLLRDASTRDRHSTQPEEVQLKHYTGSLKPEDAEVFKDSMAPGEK
Source text for 5-HT fibers: Repeated measures analysis of variance (ANOVA); *P<0.05, n=5-11.

With `NCCc1c[nH]c2c(O)cc(O)cc12` [5,7-DHT], the morphine-induced scratching behavior result in the series with 5-HT fibers is listed as “reduces, but does not eliminate scratching behavior”.
For `NCCc1c[nH]c2ccc(O)cc12` [5-HT, serotonin], the “scratching behavior induced by i.d. injection, GRPR mutant vs wild-type mice” value (“scratching behavior induced … vs wild-type mice” for short) in the series with GRPR [1] is “normal scratching behaviors”. In addition, in the series with NMBR/GRPR, the “response to i.d. pruritogens” value is reported as “deficits”.
As for `C[C@@](Cc1c[nH]c2ccccc12)(NC(=O)Nc1ccc([N+](=O)[O-])cc1)C(=O)NCC1(c2ccccn2)CCCCC1` [PD168268], the GRP-induced scratching behaviors result at NMBR (2 nmol/mouse 10 min before GRP 1 nmol/mouse) is listed as “inhibited”. At NMBR (i.t. 1 or 2 nM/mouse 10 minutes before 2 nM/mouse of NMB, wild type mice), the NMB-induced scratching behaviors entry is “inhibited”. Further, the chloroquine-induced scratching behaviors entry at NMBR (i.t. 10 minutes before i.d. chloroquine 200 μg/mouse in 50 μL) is listed as “inhibited”.
For `CCN(CC)CCCC(C)Nc1ccnc2cc(Cl)ccc12` (stereo not shown) [chloroquine], the “response to i.d. pruritogens” value in the series on NMBR/GRPR is “deficits”.
Turning to `NCCc1c[nH]cn1` [histamine], in the series on GRPR [1], the “scratching behavior induced … vs wild-type mice” value is listed as “either not significantly affected or modestly reduced”. Further, the “response to i.d. pruritogens” value with NMBR/GRPR is listed as “deficits”.
As for `C=C(C)[C@]12C[C@@H](C)[C@@]34O[C@](Cc5ccccc5)(O[C@@H]1[C@@H]3C=C(COC(=O)Cc1ccc(O)c(OC)c1)C[C@]1(O)C(=O)C(C)=C[C@@H]41)O2` [resiniferatoxin], the GRPR expression result on VR1 vanilloid receptor [2] (after RTX treatment) is recorded as “remains normal”. For the same compound, at VR1 vanilloid receptor [2] (setting [9]), the “GRP+ fibers” value was “almost depleted”, the “PKCγ (LIIi layer)” value is “remains normal”, the TRPV1 signal result is given as “almost lost” and the “non-peptidergic primary fibers labeled by IB4-FITC” value is “normal”. For the same compound, the “peptidergic fibers labeled by CGRP” value at VR1 vanilloid receptor [2] (setting [9]) is given as “largely diminished”. Moreover, on VR1 vanilloid receptor [3] (after RTX treatment), the “motor function (rotarod)” value is “not affected” and the tail-flick latency entry is recorded as “significantly increased”. Besides, the morphine-induced scratching behavior entry on VR1 vanilloid receptor [3] (mouse, in vivo) is reported as “significantly reduced”.
Take D-Phe-6-Bn(6-13)OMe: the GRP18-27-induced scratching behavior result on GRPR [4] (i.t. antagonist 1.0 nmol/2.5 μl, GRP18-27 1.0 nmol/2.5 μl, vs vehicle) is on record as “significantly inhibited”. The “scratching behavior induced by i.d. pruritogenic agents” value at GRPR [5] is “significant reduction of the scratching behavior”. Further, the “scratching induced by intrathecal morphine” value at GRPR [6] is on record as “significantly blocked”. In addition, at GRPR [7] (setting [10]), the mechanical thresholds entry is listed as “not significantly affected” and the tailflick latency entry is “comparable”. On GRPR [7] (morphine 0.3 nmol/5 μl, antagonist 1.0 nmol, vs vehicle), the “analgesic effect of intrathecal morphine” value is on record as “not significantly affected”.
As to “GRP18-27: GRPR agonist, intrathecally administered”, the “scratching behavior after i.t. GRP18-27” value in the series with GRPR [4] (wild-type mice, i.t. 0.03, 0.1 or 1.0 nmol/5 μl) is listed as “increased scratching behavior was found in a dose-dependent manner”. The “number of scratching behaviors after i.t. GRP18-27” value in the series with GRPR [8] is reported as “significantly lower”.
For “GRP: gastrin-releasing peptide, bombesin-like peptide given intrathecally (VPLPAGGGTVLTKMYPRGNHWAVGHLM; ends and bridges not checked; UniProt P07492 24-50, looked up)”, the “response to intrathecal bombesin-like peptides” value with NMBR/GRPR was “deficits”.
As to SLIGRL-NH2, the “scratching behavior induced … vs wild-type mice” value with GRPR [1] was “significantly reduced”.
For “endothelin-1: exerts its pruritic effect through ETA receptors”, the “scratching behavior induced … vs wild-type mice” value with GRPR [1] is listed as “normal scratching behaviors”. Further, in the series with NMBR/GRPR, the “response to i.d. pruritogens” value was “deficits”.
As for neuromedin B [NMB], the “response to intrathecal bombesin-like peptides” value in the series on NMBR/GRPR was “deficits”.

The record behind these values is patent US9636379B2, “Compositions and methods for treating pruritus” (Washington University, priority 2007, dated 2017).
